Source: patent US6339042B1, “Herbicidal N-cyclohexadienyl heteroaryloxyacetamides” (American Cyanamid Co., priority 1999, dated 2002)

Columns and labels:
Conditions in all cases: three weeks after treatment
[1] = tested on: Amaranthus tuberculatus; assay: Pre-emergence herbicidal evaluation, AMATA; assay type: in vivo
Excerpt: (§1) The treated pots are then placed on greenhouse benches, watered and cared for in accordance with conventional greenhouse procedures.

[2] = tested on: Alopecurus myosuroides; assay: Pre-emergence herbicidal evaluation, ALOMY; assay type: in vivo
Excerpt: as §1

[3] = tested on: Apera spica venti; assay: Pre-emergence herbicidal evaluation, APESV; assay type: in vivo
Excerpt: as §1

[4] = tested on: Echinochloa crus-galli; assay: Pre-emergence herbicidal evaluation, ECHCG; assay type: in vivo
Excerpt: as §1

[5] = tested on: Setaria viridis; assay: Pre-emergence herbicidal evaluation, SETVI; assay type: in vivo
Excerpt: as §1

[6] = tested on: Lolium perenne; assay: Pre-emergence herbicidal evaluation, LOLPE; assay type: in vivo
Excerpt: as §1

[7] = tested on: Triticum aestivum; assay: Pre-emergence herbicidal evaluation, TRZAW; assay type: in vivo
Excerpt: as §1

[8] = tested on: Hordeum vulgare; assay: Pre-emergence herbicidal evaluation, HORVW; assay type: in vivo
Excerpt: as §1

[9] = tested on: Zea mays; assay: Pre-emergence herbicidal evaluation, ZEAMX; assay type: in vivo
Excerpt: as §1

[10] = tested on: Glycine max; assay: Pre-emergence herbicidal evaluation, GLXMA; assay type: in vivo
Excerpt: as §1

[11] = tested on: Oryza sativum; assay: Pre-emergence herbicidal evaluation, ORYSA; assay type: in vivo
Excerpt: as §1

[12] = tested on: Amaranthus tuberculatus; assay: Post-emergence herbicidal evaluation, AMATA; assay type: in vivo
[13] = tested on: Galium aparine; assay: Post-emergence herbicidal evaluation, GALAP
[14] = tested on: Alopecurus myosuroides; assay: Post-emergence herbicidal evaluation, ALOMY
[15] = tested on: Apera spica venti; assay: Post-emergence herbicidal evaluation, APESV
[16] = tested on: Echinochloa crus-galli; assay: Post-emergence herbicidal evaluation, ECHCG
Description: The compounds of the invention are tested for pre- and post-emergence herbicidal activity.
(§2) Each pot is examined three weeks after treatment and phytotoxicity is assessed according to the rating system set forth below.
(§3) These acetone solutions are diluted with water and the resulting formulations applied at dosage levels equivalent of about 0.4 to 0.1 kg per hectare of test compound per pot. After spraying the plants are placed on greenhouse benches and are cared for in the usual manner, commensurate with conventional greenhouse practices.

[17] = tested on: Setaria viridis; assay: Post-emergence herbicidal evaluation, SETVI
[18] = tested on: Lolium perenne; assay: Post-emergence herbicidal evaluation, LOLPE
[19] = tested on: Triticum aestivum; assay: Post-emergence herbicidal evaluation, TRZAW
[20] = tested on: Hordeum vulgare; assay: Post-emergence herbicidal evaluation, HORVW
[21] = tested on: Zea mays; assay: Post-emergence herbicidal evaluation, ZEAMX
[22] = tested on: Glycine max; assay: Post-emergence herbicidal evaluation, GLXMA
Description: as §2, §3

[23] = tested on: Oryza sativum; assay: Post-emergence herbicidal evaluation, ORYSA

In the case of `CCc1nnc(OCC(=O)N(CC)C2=CC(C)(C)CC(C)=C2)s1` [Example 6], the “phytotoxicity rating AMATA” value ([1]; 0.100 kg/ha) is reported as 0 (0 - No effect), the “phytotoxicity rating AMATA” value ([1]; 0.200 kg/ha) is reported as 0 (0 - No effect) and the “phytotoxicity rating AMATA” value ([1]; 0.400 kg/ha) is reported as 0 (0 - No effect). The “phytotoxicity rating AMATA” value ([1]; 0.800 kg/ha) was 5 (5 - Definite injury), the “phytotoxicity rating ALOMY” value ([2]; 0.200 kg/ha) was 5 (5 - Definite injury) and the “phytotoxicity rating ALOMY” value ([2]; 0.400 kg/ha) was 6 (6 - Herbicidal effect). For the same compound, the “phytotoxicity rating ALOMY” value ([2]; 0.800 kg/ha) was 9 (9 - Complete kill), the “phytotoxicity rating APESV” value ([3]; 0.100 kg/ha) was 0 (0 - No effect) and the “phytotoxicity rating APESV” value ([3]; 0.200 kg/ha) was 0 (0 - No effect). For the same compound, the “phytotoxicity rating APESV” value ([3]; 0.400 kg/ha) was 0 (0 - No effect), the “phytotoxicity rating APESV” value ([3]; 0.800 kg/ha) was 9 (9 - Complete kill) and the “phytotoxicity rating ECHCG” value ([4]; 0.100 kg/ha) was 3 (3 - Moderate effect). The “phytotoxicity rating ECHCG” value ([4]; 0.200 kg/ha) was 6 (6 - Herbicidal effect), the “phytotoxicity rating ECHCG” value ([4]; 0.400 kg/ha) was 8 (8 - Approaching complete kill) and the “phytotoxicity rating ECHCG” value ([4]; 0.800 kg/ha) was 9 (9 - Complete kill). The “phytotoxicity rating SETVI” value ([5]; 0.200 kg/ha) was 5 (5 - Definite injury), the “phytotoxicity rating SETVI” value ([5]; 0.400 kg/ha) was 8 (8 - Approaching complete kill) and the “phytotoxicity rating SETVI” value ([5]; 0.800 kg/ha) was 9 (9 - Complete kill). For the same compound, the “phytotoxicity rating LOLPE” value ([6]; 0.100 kg/ha) was 0 (0 - No effect), the “phytotoxicity rating LOLPE” value ([6]; 0.200 kg/ha) was 0 (0 - No effect) and the “phytotoxicity rating LOLPE” value ([6]; 0.400 kg/ha) was 5 (5 - Definite injury). The “phytotoxicity rating LOLPE” value ([6]; 0.800 kg/ha) was 7 (7 - Good herbicidal effect), the “phytotoxicity rating TRZAW” value ([7]; 0.100 kg/ha) was 0 (0 - No effect) and the “phytotoxicity rating TRZAW” value ([7]; 0.200 kg/ha) was 0 (0 - No effect). The “phytotoxicity rating TRZAW” value ([7]; 0.400 kg/ha) was 0 (0 - No effect), the “phytotoxicity rating TRZAW” value ([7]; 0.800 kg/ha) was 2 (2 - Slight effect) and the “phytotoxicity rating HORVW” value ([8]; 0.100 kg/ha) was 0 (0 - No effect). For the same compound, the “phytotoxicity rating HORVW” value ([8]; 0.200 kg/ha) was 0 (0 - No effect), the “phytotoxicity rating HORVW” value ([8]; 0.400 kg/ha) was 1 (1 - Trace effect) and the “phytotoxicity rating HORVW” value ([8]; 0.800 kg/ha) was 3 (3 - Moderate effect). For the same compound, the “phytotoxicity rating ZEAMX” value ([9]; 0.100 kg/ha) was 0 (0 - No effect), the “phytotoxicity rating ZEAMX” value ([9]; 0.200 kg/ha) was 0 (0 - No effect) and the “phytotoxicity rating ZEAMX” value ([9]; 0.400 kg/ha) was 0 (0 - No effect). For the same compound, the “phytotoxicity rating ZEAMX” value ([9]; 0.800 kg/ha) was 0 (0 - No effect), the “phytotoxicity rating GLXMA” value ([10]; 0.100 kg/ha) was 0 (0 - No effect) and the “phytotoxicity rating GLXMA” value ([10]; 0.200 kg/ha) was 0 (0 - No effect). For the same compound, the “phytotoxicity rating GLXMA” value ([10]; 0.400 kg/ha) was 0 (0 - No effect), the “phytotoxicity rating GLXMA” value ([10]; 0.800 kg/ha) was 0 (0 - No effect) and the “phytotoxicity rating ORYSA” value ([11]; 0.100 kg/ha) was 0 (0 - No effect). For the same compound, the “phytotoxicity rating ORYSA” value ([11]; 0.200 kg/ha) was 0 (0 - No effect), the “phytotoxicity rating ORYSA” value ([11]; 0.400 kg/ha) was 3 (3 - Moderate effect) and the “phytotoxicity rating ORYSA” value ([11]; 0.800 kg/ha) was 7 (7 - Good herbicidal effect). For the same compound, the “phytotoxicity rating AMATA” value ([12]; 0.100 kg/ha) was 0 (0 - No effect), the “phytotoxicity rating AMATA” value ([12]; 0.200 kg/ha) was 0 (0 - No effect) and the “phytotoxicity rating AMATA” value ([12]; 0.400 kg/ha) was 0 (0 - No effect). The “phytotoxicity rating GALAP” value ([13]; 0.100 kg/ha) was 0 (0 - No effect), the “phytotoxicity rating GALAP” value ([13]; 0.200 kg/ha) was 0 (0 - No effect) and the “phytotoxicity rating GALAP” value ([13]; 0.400 kg/ha) was 4 (4 - Injury). For the same compound, the “phytotoxicity rating ALOMY” value ([14]; 0.100 kg/ha) was 0 (0 - No effect), the “phytotoxicity rating ALOMY” value ([14]; 0.200 kg/ha) was 4 (4 - Injury) and the “phytotoxicity rating ALOMY” value ([14]; 0.400 kg/ha) was 8 (8 - Approaching complete kill). For the same compound, the “phytotoxicity rating APESV” value ([15]; 0.100 kg/ha) was 0 (0 - No effect), the “phytotoxicity rating APESV” value ([15]; 0.200 kg/ha) was 0 (0 - No effect) and the “phytotoxicity rating APESV” value ([15]; 0.400 kg/ha) was 1 (1 - Trace effect). The “phytotoxicity rating ECHCG” value ([16]; 0.100 kg/ha) was 0 (0 - No effect), the “phytotoxicity rating ECHCG” value ([16]; 0.200 kg/ha) was 0 (0 - No effect) and the “phytotoxicity rating ECHCG” value ([16]; 0.400 kg/ha) was 0 (0 - No effect). For the same compound, the “phytotoxicity rating SETVI” value ([17]; 0.100 kg/ha) was 0 (0 - No effect), the “phytotoxicity rating SETVI” value ([17]; 0.200 kg/ha) was 0 (0 - No effect) and the “phytotoxicity rating SETVI” value ([17]; 0.400 kg/ha) was 0 (0 - No effect). For the same compound, the “phytotoxicity rating LOLPE” value ([18]; 0.100 kg/ha) was 0 (0 - No effect), the “phytotoxicity rating LOLPE” value ([18]; 0.200 kg/ha) was 0 (0 - No effect) and the “phytotoxicity rating LOLPE” value ([18]; 0.400 kg/ha) was 0 (0 - No effect). For the same compound, the “phytotoxicity rating TRZAW” value ([19]; 0.100 kg/ha) was 0 (0 - No effect), the “phytotoxicity rating TRZAW” value ([19]; 0.200 kg/ha) was 0 (0 - No effect) and the “phytotoxicity rating TRZAW” value ([19]; 0.400 kg/ha) was 1 (1 - Trace effect). For the same compound, the “phytotoxicity rating HORVW” value ([20]; 0.100 kg/ha) was 0 (0 - No effect), the “phytotoxicity rating HORVW” value ([20]; 0.200 kg/ha) was 0 (0 - No effect) and the “phytotoxicity rating HORVW” value ([20]; 0.400 kg/ha) was 0 (0 - No effect). For the same compound, the “phytotoxicity rating ZEAMX” value ([21]; 0.100 kg/ha) was 0 (0 - No effect), the “phytotoxicity rating ZEAMX” value ([21]; 0.200 kg/ha) was 0 (0 - No effect) and the “phytotoxicity rating ZEAMX” value ([21]; 0.400 kg/ha) was 0 (0 - No effect). For the same compound, the “phytotoxicity rating GLXMA” value ([22]; 0.100 kg/ha) was 3 (3 - Moderate effect), the “phytotoxicity rating GLXMA” value ([22]; 0.200 kg/ha) was 4 (4 - Injury) and the “phytotoxicity rating GLXMA” value ([22]; 0.400 kg/ha) was 4 (4 - Injury). The “phytotoxicity rating ORYSA” value ([23]; 0.100 kg/ha) was 0 (0 - No effect), the “phytotoxicity rating ORYSA” value ([23]; 0.200 kg/ha) was 1 (1 - Trace effect) and the “phytotoxicity rating ORYSA” value ([23]; 0.400 kg/ha) was 2 (2 - Slight effect).
